Here are results for one compound from publication PMC9530166, “Allosteric regulation of glycogen breakdown by the second messenger cyclic di-GMP” (Nature Communications, 2022).

In assay [1] the test system is GlgXE47A-R49A. Put plainly: Fluorescence polarization binding, GlgXE47A-R49A. On the set-up: species or system Streptomyces venezuelae. The source says:
(§1) Fig. 5 Structure of the S. venezuelae GlgX-c-di-GMP complex. a Ribbon diagram of the S. venezuelae GlgX-c-di-GMP complex with one GlgX subunit colored cyan and the other salmon. Shown as sticks are the c-di-GMP molecules bound at each end of the antiparallel dimer. […] There was clear density for each c-di-GMP molecule. b Close up of the GlgX-c-di-GMP binding interaction. Key residues mediating contacts to the c-di-GMP are shown as sticks and labeled. Hydrogen bonds from GlgX residues that specify binding to the guanine are indicated by yellow dashed lines. c Fluorescence polarization (FP) binding isotherm showing interaction of GlgX, GlgXE47A-R49A and GlgXR438A-R579A for F-c-di-GMP in red, green and blue respectively. Also shown is the binding isotherm for GlgX binding to F-c-di-AMP in black. […] The y-axis and x-axis are millipolarization (mP) units and GlgX concentration (μM), respectively. Shown are representative binding curves for each. The experiments were performed in technical triplicates and the error between measurements reported. […]
(§2) Thus, we used this F-tagged c-di-GMP in fluorescence polarization (FP) studies to quantify the interaction between GlgX and c-di-GMP. […] To ensure that the presence of the fluorescent tag was not impacting the GlgX interaction with c-di-GMP we used microscale thermophoresis (MST) to quantify c-di-GMP binding to GlgX. […]

Assay [2] deals with GlgXR438A-R579A. Put plainly: Fluorescence polarization binding, GlgXR438A-R579A. On the set-up: species or system Streptomyces venezuelae.
Text: as §1, §2

Assay [3] deals with His6-GlgXE378A. Put plainly: BCA reducing-end enzyme assay, GlgXE378A. In kind it is biochemical, Streptomyces venezuelae. As to conditions: 50 µM c-di-GMP, 0.05% glycogen from rabbit, 1 µM enzyme. How it is done:
Fig. 2 c-di-GMP stimulates glycogen breakdown activity of GlgX in vitro. a Bicinchoninic acid (BCA) in vitro enzyme assay. The purple copper bicinchoninate complex indicating GlgX-mediated generation of reducing ends in glycogen was quantified by photometric measurements at 562 nm. A562 values were converted into reducing ends [µM glucose equivalents] based on D-glucose as a standard. Reactions contained 0.05% (w/v) glycogen from rabbit, 1 µM GlgX and increasing concentrations of c-di-GMP (0–100 µM). Source data are provided as a Source data file. b BCA assay containing 0.05% of either glycogen from rabbit, pullulan, amylopectin from maize or amylose from potato as substrates. Where appropriate, 1 µM GlgX or 50 µM c-di-GMP were added to the reaction samples. Source data are provided as a Source data file. c BCA assay as in a with or without c-di-GMP (50 µM), 0.05% glycogen from rabbit (S) and 1 µM Vnz25270, GlgX, the active site mutants GlgXD342A, GlgXE378A, GlgXD342A+E378A, or the c-di-GMP-binding mutant variant GlgXDETR49-52 as indicated. […]
Hydrolysis of carbohydrates was assessed in vitro by measuring the accumulation of reducing sugar ends using the BCA assay[42] and D-glucose as a standard for calibration (Supplementary Fig. 11). […] 125 μl sample aliquots were transferred in duplicates to a 96 well plate and the absorbance at 562 nm was measured using a plate reader.

Consider `Nc1nc2c(ncn2[C@@H]2O[C@@H]3CO[P@](=O)(O)O[C@H]4[C@@H](O)[C@H](n5cnc6c(=O)[nH]c(N)nc65)O[C@@H]4CO[P@](=O)(O)O[C@H]3[C@H]2O)c(=O)[nH]1` [c-di-GMP, bis-(3′−5′)-cyclic diguanosine monophosphate], for which the “binding to mutant in FP” value is listed as “weak, nonsaturable binding” in assay [1] and “weak, nonsaturable binding” in assay [2]. In addition, the “stimulation of enzyme activity by c-di-GMP” value in assay [3] is listed as “could not be stimulated”.
